From US6861429B2, “2,3-diaryl-pyrazolo[1,5-b]pyridazines derivatives, their preparation and their use as cyclooxygenase 2 (COX-2) inhibitors” (SmithKline Beecham Corporation, priority 1997, dated 2005) come the findings set out here.

Where only a bound is given, the exact number is not on record here.

For assay [1], the target named is T1, human COX-2 (Homo sapiens, UniProt P35354).
T1 construct: expressed in transfected cells
T1 sequence (P35354 18-604): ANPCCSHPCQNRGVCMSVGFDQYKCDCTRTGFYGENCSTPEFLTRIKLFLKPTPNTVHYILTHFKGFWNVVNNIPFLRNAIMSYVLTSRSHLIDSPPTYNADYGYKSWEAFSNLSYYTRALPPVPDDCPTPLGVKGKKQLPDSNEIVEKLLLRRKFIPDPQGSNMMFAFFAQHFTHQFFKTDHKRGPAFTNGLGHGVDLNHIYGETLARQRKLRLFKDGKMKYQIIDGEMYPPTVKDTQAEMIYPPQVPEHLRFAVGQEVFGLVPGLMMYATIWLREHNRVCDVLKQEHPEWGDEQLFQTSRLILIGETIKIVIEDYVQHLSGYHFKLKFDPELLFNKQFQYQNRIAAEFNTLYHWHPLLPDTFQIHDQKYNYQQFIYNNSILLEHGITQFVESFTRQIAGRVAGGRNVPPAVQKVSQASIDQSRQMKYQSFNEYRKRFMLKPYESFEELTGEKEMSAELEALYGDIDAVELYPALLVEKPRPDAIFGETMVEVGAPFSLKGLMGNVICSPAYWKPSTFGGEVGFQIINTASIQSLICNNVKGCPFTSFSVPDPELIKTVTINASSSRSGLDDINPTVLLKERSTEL
Description: Inhibition of PGE2 release in COS cells stably transfected with human COX-2. Format: cell-based. The conditions noted are these: 30 μM arachidonic acid, PGE2 release by enzyme immunoassay.
Description: (§1) Inhibitory activity against human COX-1and COX-2was assessed in COS cells which had been stably transfected with cDNA for human COX-1and human COX-2. 24Hours prior to experiment, COS cells were transferred from the 175 cm^2flasks in which they were grown, onto 24-well cell culture plates using the following procedure. The incubation medium (Dulbecco's modified eagles medium (DMEM) supplemented with heat-inactivated foetal calf serum (10% v/v), penicillin (100 IU/ml), streptomycin (100 μg/ml) and geneticin (600 μg/ml)) was removed from a flask of confluent cells (1flask at confluency contains approximately 1×10^7 cells). 10 ml of phosphate buffered saline (PBS) was added to the flask to wash the cells. Having discarded the PBS, cells were then rinsed in 10 ml trypsin for 20 seconds, after which the trypsin was removed and the flask placed in an incubator (37°) for 1-2 minutes until cells became detached from the flask. The flask was then removed from the incubator and cells resuspended in 10 ml of fresh incubation medium. The contents of the flask was transferred to a 250 ml sterile container and the volume of incubation medium subsequently made up to 100 ml. […] If more than 1 flask of cells were required, the cells from the individual flasks were combined before being dispensed into the 24-well plates.
(§2) Following the overnight incubation, the incubation medium was completely removed from the 24-well cell culture plates and replaced with 250 μl fresh DMEM (37° C.). The test compounds were made up to 250× the required test concentration in DMSO and were added to the wells in a volume of 1 μl. […] Plates were then incubated for a further 15 minutes, after which the incubation medium was removed from each well of the plates and stored at −20° C., prior to determination of prostaglandin E2(PGE2) levels using enzyme immunoassay. […] The selectivity ratio of inhibition of COX-1 versus COX-2 was calculated by comparing respective IC50 values.

Assay [2] concerns the target T2, human COX-1 (Homo sapiens, UniProt P23219).
T2 construct: expressed in transfected cells
Description: Inhibition of PGE2 release in COS cells stably transfected with human COX-1. Format: cell-based. The note with it: 30 μM arachidonic acid, PGE2 release by enzyme immunoassay.
Description: as §1, §2

By IC50 is commonly meant the midpoint of a concentration-inhibition curve.

T2 sequence (P23219 24-599): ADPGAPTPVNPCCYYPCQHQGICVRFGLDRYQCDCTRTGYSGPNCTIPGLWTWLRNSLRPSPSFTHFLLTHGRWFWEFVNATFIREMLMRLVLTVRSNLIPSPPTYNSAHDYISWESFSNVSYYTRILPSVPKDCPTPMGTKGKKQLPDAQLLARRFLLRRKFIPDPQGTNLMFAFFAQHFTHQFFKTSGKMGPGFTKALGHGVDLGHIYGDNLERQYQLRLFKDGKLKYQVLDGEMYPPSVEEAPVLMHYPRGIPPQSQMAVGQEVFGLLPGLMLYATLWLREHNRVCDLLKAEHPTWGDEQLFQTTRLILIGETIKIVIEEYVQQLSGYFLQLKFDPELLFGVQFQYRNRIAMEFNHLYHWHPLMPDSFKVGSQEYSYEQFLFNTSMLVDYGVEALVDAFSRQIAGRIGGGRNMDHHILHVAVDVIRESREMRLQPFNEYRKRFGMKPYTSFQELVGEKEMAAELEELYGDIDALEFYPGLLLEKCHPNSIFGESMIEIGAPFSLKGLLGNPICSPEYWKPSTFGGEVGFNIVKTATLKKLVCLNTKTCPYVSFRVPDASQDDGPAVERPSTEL

As to `CS(=O)(=O)c1ccc(-c2c(-c3ccc(OC(F)F)cc3)nn3ncccc23)cc1` [Example 5, 2-(4-Difluoromethoxy-phenyl)-3-(4-methanesulfonyl-phenyl)-pyrazolo[1,5-b]pyridazine], the figures for the IC50 in assay [1] and in assay [2] were 21 nM and above 100000 nM, respectively.

Regarding `CS(=O)(=O)c1ccc(-c2c(-c3ccc(F)cc3)nn3nc(OC(F)F)ccc23)cc1` [1(v), 6-Difluoromethoxy-2-(4-fluoro-phenyl)-3-(4-methanesulfonyl-phenyl)-pyrazolo[1,5-b]pyridazine], the IC50 is 35 nM in assay [1] and above 100000 nM in assay [2].

As for `CCOc1ccc(-c2nn3ncccc3c2-c2ccc(S(C)(=O)=O)cc2)cc1` [3(ii), 2-(4-Ethoxy-phenyl)-3-(4-methanesulfonyl-phenyl)-pyrazolo[1,5-b]pyridazine], the IC50 in assay [2] is above 100000 nM.

As for `CS(=O)(=O)c1ccc(-c2c(-c3cccc(F)c3)nn3nc(OC(F)F)ccc23)cc1` [7(viii), 6-Difluoromethoxy-2-(3-fluoro-phenyl)-3-(4-methanesulfonyl-phenyl)-pyrazolo[1,5-b]pyridazine], the figures for the IC50 in assay [1] and in assay [2] were 16 nM and above 55200 nM, respectively.

In the case of `COc1ccc(-c2nn3ncccc3c2-c2ccc(S(C)(=O)=O)cc2)cc1` [2(ii), 3-(4-Methanesulfonyl-phenyl)-2-(4-methoxy-phenyl)-pyrazolo[1,5-b]pyridazine], the IC50 in assay [1] is below 10 nM.
